One may read the melting point as the temperature of the solid-liquid transition.

The structures appear in SMILES notation. pIC50: −log10 of the molar value. Counter-ions that a name gives are not always drawn.

T1 sequence (P09619 with tags, fused parts or gaps): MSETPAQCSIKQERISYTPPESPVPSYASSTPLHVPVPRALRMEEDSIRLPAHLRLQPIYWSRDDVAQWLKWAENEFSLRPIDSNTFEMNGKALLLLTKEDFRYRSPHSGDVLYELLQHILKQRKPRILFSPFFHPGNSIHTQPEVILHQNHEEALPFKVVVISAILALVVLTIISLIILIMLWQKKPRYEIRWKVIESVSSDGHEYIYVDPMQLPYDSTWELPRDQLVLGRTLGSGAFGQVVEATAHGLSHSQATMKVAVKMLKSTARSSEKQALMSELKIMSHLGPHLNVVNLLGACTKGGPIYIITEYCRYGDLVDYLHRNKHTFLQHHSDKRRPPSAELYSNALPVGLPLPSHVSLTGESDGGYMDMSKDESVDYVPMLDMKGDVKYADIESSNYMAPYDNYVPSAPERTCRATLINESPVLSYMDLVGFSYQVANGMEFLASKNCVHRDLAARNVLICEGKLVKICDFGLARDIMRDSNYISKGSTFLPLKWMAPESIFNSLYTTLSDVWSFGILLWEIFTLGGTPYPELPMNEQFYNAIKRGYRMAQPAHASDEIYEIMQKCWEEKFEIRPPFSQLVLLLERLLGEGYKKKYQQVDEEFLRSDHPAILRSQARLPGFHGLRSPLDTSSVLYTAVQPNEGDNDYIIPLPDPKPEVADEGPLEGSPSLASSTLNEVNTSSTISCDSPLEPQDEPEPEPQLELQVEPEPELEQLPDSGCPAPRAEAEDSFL

The first data set addresses T1, fusion protein Tel/PDGF-R beta (PDGF beta receptor) in BaF/3 cells (Homo sapiens, UniProt P09619).
T1 construct: the transmembrane and intracellular part of the PDGF-R beta receptor; expressed in transfected cells; host or cells: murine haematopoietic cell line BaF/3; the other entry of the earlier key: ETV6 (P41212, Transcription factor ETV6)
In words: Inhibition of proliferation of BaF3 Tel/PDGF cells (tyrosine kinase activity of PDGF-R beta), CellTiter-Glo, 72 h. The class given is cell-based, murine. The settings on record: 72 h incubation, cellular ATP, read-out: IC50 (concentration that inhibits 50% of the proliferation of Baf3 tel/PDGF cells). An excerpt:
(§1) The inhibitory activity with respect to PDGF or Flt-3 receptors is given by the concentration that inhibits 50% of the proliferation activity of cells Baf3 tel/PDGF or MV4-11, respectively.
Measurement of Inhibition of the Tyrosine Kinase Activity of the Receptor to PDGF Beta (PDGF-Rβ) (Baf-3 tel/PDGFRβ):
This test consists of evaluating the effects of the compounds on the tyrosine kinase activity of the PDGF beta receptor.
The inhibitory effect of the compounds according to the invention on the tyrosine kinase activity of the PDGF-R receptor was evaluated on the murine haematopoietic cell line BaF/3 transfected with a plasmid coding for the fusion protein Tel/PDGF-R beta. This fusion protein is found in chronic myeloid myelomonocytic leukaemias (CMML). It comprises the N-terminal part of the transcription factor Tel and the transmembrane and intracellular part of the PDGF-R beta receptor. This fusion protein is present in dimerized form (presence of an oligomerization domain in the N-terminal part of Tel) and accordingly leads to the constitutive activity of the kinase domain of PDGF-R beta.
The BaF3 Tel/PDGF cells are washed with phosphate buffer and seeded in 96-well plates, at a density of 5.10^4 cells/ml ([…]), in RPMI 1640 containing 10% of FCS, in the presence or absence of the test compounds. After incubation for 72 h, the viable cells are quantified by measurement of cellular ATP using the CellTiter-Glo® kit (Promega, Cat G7571). The cells are treated according to the instructions given by the supplier of the kit and the luminescence is measured with a Luminoskan (Ascent, Labsystem) with the following parameters: measurement: single; integration time: 1000 ms, lag time: 5 s.
It thus appears that the compounds according to the invention have an inhibitory activity on the tyrosine kinase activity of PDGF-R beta. This activity is given by the concentration that inhibits 50% of the proliferation of Baf3 tel/PDGF cells (IC50).
For the compound `CCn1c(N)c(-c2ncc[nH]2)c(=O)c2ccc(-c3ccc(CC(=O)Nc4ccccn4)cn3)nc21` [Compound 2, 2-{6-[7-Amino-8-ethyl-6-(1H-imidazol-2-yl)-5-oxo-5,8-dihydro-[1,8]naphthyridin-2-yl]-pyridin-3-yl}-N-pyridin-2-yl-acetamide], the pIC50 is 8.10.

In the case of `CCN1CCCC1CNC(=O)Cc1ccc(-c2ccc3c(=O)c(-c4ncc[nH]4)c(N)n(CC)c3n2)c(C)c1` (stereo not shown) [Compound 9, 2-{4-[7-Amino-8-ethyl-6-(1H-imidazol-2-yl)-5-oxo-5,8-dihydro-[1,8]naphthyridin-2-yl]-3-methyl-phenyl}-N-(1-ethyl-pyrrolidin-2-ylmethyl)-acetamide], the pIC50 is 8.01.

With `CCn1c(N)c(-c2ncc[nH]2)c(=O)c2ccc(-c3ccc(CC(=O)Nc4ccc(C)nc4)cc3)nc21` [Compound 10, 2-{4-[7-Amino-8-ethyl-6-(1H-imidazol-2-yl)-5-oxo-5,8-dihydro-[1,8]naphthyridin-2-yl]-phenyl}-N-(6-methyl-pyridin-3-yl)-acetamide], the pIC50 is 8.60.

In the case of `CCn1c(N)c(-c2ncc[nH]2)c(=O)c2ccc(-c3ccc(CC(=O)Nc4nnc(C)s4)cc3)nc21` [Compound 14, 2-{4-[7-Amino-8-ethyl-6-(1H-imidazol-2-yl)-5-oxo-5,8-dihydro-[1,8]naphthyridin-2-yl]-phenyl}-N-(5-methyl-[1,3,4]thiadiazol-2-yl)-acetamide], the pIC50 is 8.62.

Turning to `Nc1c(-c2ncc[nH]2)c(=O)c2ccc(-c3ccc(CC(=O)NCc4ccncc4)cc3)nc2n1CC1CC1` [Compound 51, 2-{4-[7-Amino-8-cyclopropylmethyl-6-(1H-imidazol-2-yl)-5-oxo-5,8-dihydro-[1,8]naphthyridin-2-yl]-phenyl}-N-pyridin-4-ylmethyl-acetamide], the pIC50 is 8.05.

`Nc1c(-c2ncc[nH]2)c(=O)c2ccc(-c3ccc(CC(=O)NCc4ccncc4)cc3)nc2n1C1CCCC1` [Compound 52, 2-{4-[7-Amino-8-cyclopentyl-6-(1H-imidazol-2-yl)-5-oxo-5,8-dihydro-[1,8]naphthyridin-2-yl]-phenyl}-N-pyridin-4-ylmethyl-acetamide]: the pIC50 was 7.87.

For the compound `CCn1c(N)c(-c2ncc[nH]2)c(=O)c2ccc(-c3ccc(CC(=O)NCCCc4ccccc4)cc3)nc21` [Compound 55, 2-{4-[7-Amino-8-ethyl-6-(1H-imidazol-2-yl)-5-oxo-5,8-dihydro-[1,8]naphthyridin-2-yl]-phenyl}-N-(3-phenyl-propyl)-acetamide], the pIC50 was 8.23.

Tested on in a further data set: not given
Experiment: not given
Details: not given
With `CCn1c(N)c(-c2ncc[nH]2)c(=O)c2ccc(-c3ccc(CC(=O)Nc4ccccn4)cn3)nc21` (as salt: HCl) [Compound 2, 2-{6-[7-Amino-8-ethyl-6-(1H-imidazol-2-yl)-5-oxo-5,8-dihydro-[1,8]naphthyridin-2-yl]-pyridin-3-yl}-N-pyridin-2-yl-acetamide], the melting point stood at 200 °C.

`CCn1c(N)c(-c2ncc[nH]2)c(=O)c2ccc(-c3ccc(CC(=O)NCC4COCCN4C4CC4)cc3)nc21` (stereo not shown) (as salt: HCl) [Compound 3, 2-{4-[7-Amino-8-ethyl-6-(1H-imidazol-2-yl)-5-oxo-5,8-dihydro-[1,8]naphthyridin-2-yl]-phenyl}-N-(4-cyclopropyl-morpholin-3-ylmethyl)-acetamide] came in with a melting point of 210 °C.

Compound `Nc1c(-c2ncc[nH]2)c(=O)c2ccc(-c3ccc(CC(=O)NCc4ccncc4)cc3)nc2n1CC1CC1` (as salt: TFA) [Compound 51, 2-{4-[7-Amino-8-cyclopropylmethyl-6-(1H-imidazol-2-yl)-5-oxo-5,8-dihydro-[1,8]naphthyridin-2-yl]-phenyl}-N-pyridin-4-ylmethyl-acetamide] came in with a melting point of 118 °C.

Compound `CCn1c(N)c(-c2ncc[nH]2)c(=O)c2ccc(-c3ccc(CC(=O)NCc4ccncc4)nc3)nc21` (as salt: TFA) [Compound 53, 2-{5-[7-Amino-8-ethyl-6-(1H-imidazol-2-yl)-5-oxo-5,8-dihydro-[1,8]naphthyridin-2-yl]-pyridin-2-yl}-N-pyridin-4-ylmethyl-acetamide] yielded a melting point of 120 °C.

`CCn1c(N)c(-c2nc(C)c[nH]2)c(=O)c2ccc(-c3ccc(CC(=O)NCc4ccncc4)cc3)nc21` (as salt: salt) [Compound 50, 2-{4-[7-Amino-8-ethyl-6-(4-methyl-1H-imidazol-2-yl)-5-oxo-5,8-dihydro-[1,8]naphthyridin-2-yl]-phenyl}-N-pyridin-4-ylmethyl-acetamide] returned a melting point of 144 °C.

Consider `CCn1c(N)c(-c2ncc[nH]2)c(=O)c2ccc(-c3ccc(C(C)C(=O)NCc4ccncc4)cc3)nc21` (stereo not shown) [Compound 47, 2-{4-[7-Amino-8-ethyl-6-(1H-imidazol-2-yl)-5-oxo-5,8-dihydro-[1,8]naphthyridin-2-yl]-phenyl}-N-pyridin-4-ylmethyl-propionamide], for which the melting point came to 186 °C.

Regarding `CCn1c(N)c(-c2ncc[nH]2)c(=O)c2ccc(-c3ccc(CCCC(=O)NCc4ccncc4)cc3)nc21` [Compound 49, 4-{4-[7-Amino-8-ethyl-6-(1H-imidazol-2-yl)-5-oxo-5,8-dihydro-[1,8]naphthyridin-2-yl]-phenyl}-N-pyridin-4-ylmethyl-butyramide], the melting point came out at 240 °C.

`CCN1CCCC1CNC(=O)Cc1ccc(-c2ccc3c(=O)c(-c4ncc[nH]4)c(N)n(CC)c3n2)cc1F` (stereo not shown) [Compound 56, 2-{4-[7-Amino-8-ethyl-6-(1H-imidazol-2-yl)-5-oxo-5,8-dihydro-[1,8]naphthyridin-2-yl]-2-fluoro-phenyl}-N-(1-ethyl-pyrrolidin-2-ylmethyl)-acetamide] registered a melting point of 100 °C.

A further data set concerns the target T2, Flt-3 receptor (constitutively active mutant Flt3ITD, MV4-11 cell line) (Homo sapiens, UniProt P36888, INS600HVDFREYEYD).
T2 construct: bearing a constitutively active mutant Flt3ITD; endogenous in cells; host or cells: MV4-11
T2 sequence (P36888 with tags, fused parts or gaps INS600HVDFREYEYD): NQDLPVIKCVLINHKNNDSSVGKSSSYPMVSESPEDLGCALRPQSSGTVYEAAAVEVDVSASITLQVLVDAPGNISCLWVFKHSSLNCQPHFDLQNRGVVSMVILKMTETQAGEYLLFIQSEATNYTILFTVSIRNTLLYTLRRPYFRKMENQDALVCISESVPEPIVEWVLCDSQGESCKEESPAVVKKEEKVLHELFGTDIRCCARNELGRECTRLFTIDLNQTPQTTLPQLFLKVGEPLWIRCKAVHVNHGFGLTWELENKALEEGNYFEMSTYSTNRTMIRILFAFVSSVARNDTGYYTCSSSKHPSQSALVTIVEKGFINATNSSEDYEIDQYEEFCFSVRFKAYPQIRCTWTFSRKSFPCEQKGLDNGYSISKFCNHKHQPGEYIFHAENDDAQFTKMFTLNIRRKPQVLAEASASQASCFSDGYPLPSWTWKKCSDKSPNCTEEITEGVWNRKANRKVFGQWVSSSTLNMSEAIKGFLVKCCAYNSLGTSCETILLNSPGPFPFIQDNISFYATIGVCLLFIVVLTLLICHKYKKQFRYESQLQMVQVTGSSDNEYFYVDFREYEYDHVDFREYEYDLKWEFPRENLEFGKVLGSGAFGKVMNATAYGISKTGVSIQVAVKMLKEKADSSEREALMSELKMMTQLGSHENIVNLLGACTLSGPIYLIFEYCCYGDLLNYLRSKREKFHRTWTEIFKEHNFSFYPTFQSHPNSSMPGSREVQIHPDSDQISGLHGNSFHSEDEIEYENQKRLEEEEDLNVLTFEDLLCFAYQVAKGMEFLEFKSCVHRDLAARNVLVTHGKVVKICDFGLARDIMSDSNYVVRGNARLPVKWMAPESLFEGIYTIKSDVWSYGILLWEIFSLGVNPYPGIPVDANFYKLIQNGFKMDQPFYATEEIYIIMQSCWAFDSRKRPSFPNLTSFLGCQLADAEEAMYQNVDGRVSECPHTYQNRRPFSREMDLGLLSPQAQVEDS
In words: Inhibition of proliferation of MV4-11 cells (tyrosine kinase activity of Flt-3 receptor), CellTiter-Glo, 72 h. The class given is cell-based. The settings on record: 72 h incubation, cellular ATP, read-out: IC50 (concentration that inhibits 50% of the proliferation of the MV4-11 cells). The procedure: as §1
Measurement of Inhibition of the Tyrosine Kinase Activity of the Flt-3 Receptor
The inhibitory effect of the compounds according to the invention on the tyrosine kinase activity of the Flt-3 receptor was evaluated on the MV4-11 cell line, a line established from a leukaemia of the AML type and bearing a constitutively active mutant Flt3ITD. The inhibitory activity is correlated with inhibition of cell growth, according to the protocols described by SPIEKERMANN, K. et al., Blood, 2003, 101, (4) 1494-1504 and O'FARRELL, A.-M. et al., Blood, 2003, 101, (9) 3597-3605.
The MV4-11 cells are washed with PBS buffer and seeded in 96-well plates, at a density of 1.10^5 cells/ml (100 μl per well), in RPMI 1640 containing 10% of FCS, in the presence or absence of the test compounds. After incubation for 72 h, viable cells are quantified by measurement of cellular ATP using the CellTiter-Glo® kit (Promega, Cat G7571). The cells are treated according to the instructions given by the supplier of the kit and the luminescence is measured using a Luminoskan (Ascent, Labsystem) with the following parameters: measurement: single; integration time: 1000 ms, lag time: 5 s.
The inhibitory activity with respect to the Flt-3 receptor is given by the concentration that inhibits 50% of the proliferation of the MV4-11 cells.
In the case of `CCn1c(N)c(-c2ncc[nH]2)c(=O)c2ccc(-c3ccc(CC(=O)Nc4ncc(Cl)s4)cc3)nc21` [Compound 26, 2-{4-[7-Amino-8-ethyl-6-(1H-imidazol-2-yl)-5-oxo-5,8-dihydro-[1,8]naphthyridin-2-yl]-phenyl}-N-(5-chloro-thiazol-2-yl)-acetamide], the pIC50 is 7.02.

The values above are taken from patent US8623893B2, “Pyridino-pyridinone derivatives, preparation and therapeutic use thereof” (SANOFI, priority 2009, dated 2014).
